Test results: publication PMC9738062, “Selectively Halogenated Flavonolignans—Preparation and Antibacterial Activity” (International Journal of Molecular Sciences, 2022)

Columns and labels:
[1] = Ferric reducing antioxidant power (FRAP); conditions: Fe2+ equivalents
Protocol: (§1) To further elucidate how halogenation affects other properties of the flavonoids studied, their 2,2′-azino-bis-(3-ethylbenzothiazoline-6-sulfonic acid) cation (ABTS) and 1,1-diphenyl-2-picrylhydrazyl (DPPH) radical scavenging, the Folin–Ciocalteu reagent (FCR) reducing, the ferric-reducing antioxidant power (FRAP), and the anti-lipoperoxidation activities were evaluated by in vitro methods (Supplementary Information Tables S1 and S2).
(§2) The antiradical activity was evaluated by the ability to scavenge ABTS and DPPH radicals. Reducing capacity was assessed by the ability to reduce the Folin–Ciocalteu reagent (FCR) and ferric ions (FRAP). The ability to inhibit lipid peroxidation of pooled male rat microsomal liver membranes induced by tert-butyl hydroperoxide was also evaluated and the results were expressed as IC50 values.

[2] = tested on: multidrug-resistant P. aeruginosa; assay: Sensitization of antibiotic-resistant bacteria (compound plus breakpoint antibiotic concentration); type: cell-based, Pseudomonas aeruginosa; conditions: flavonoid 40 µM, 24 h; for Effect on viability in combination with colistin: colistin 2 mg/L; for Effect on viability in combination with imipenem: imipenem 4 mg/L; as to Effect on viability in combination with imipenem: key: -: no effect (100% viability) was observed up to the highest flavonolignan concentration tested (>40 µM); reversion of resistance: the compound reversed the resistant phenotype to a sensitive one
Protocol: (§3) Clinically relevant antibiotics were selected for sensitization testing according to the European Committee on Antimicrobial Susceptibility Testing (EUCAST). Neither colistin and imipenem at breakpoint concentrations (according to EUCAST, […] and […]) affected the growth of the multidrug-resistant clinical strain of P. aeruginosa. Similarly, neither chloramphenicol and gentamicin at breakpoint concentrations ([…], respectively) affected the multidrug-resistant clinical strain of S. aureus. Flavonoids and their derivatives (1–40 µM) were used in combination therapy, along with the breakpoint concentration of antibiotics. After co-incubation, the minimum inhibitory concentration of flavonoids inhibiting the visible growth of bacteria was determined (Table 2).
(§4) Clinical isolates of P. aeruginosa and S. aureus were obtained from the General University Hospital in Prague (Prague, Czech Republic). P. aeruginosa was resistant to ciprofloxacin, oxacillin, ticarcillin, colistin, gentamicin, and imipenem. S. aureus was resistant to ciprofloxacin, gentamicin, erythromycin, chloramphenicol, clindamycin, oxacillin, cefotaxime, and vancomycin. Bacteria were cultivated in Mueller–Hinton broth (MH broth, Merck). The susceptibility of the bacteria was evaluated by the minimum inhibitory concentrations (MIC). The MIC of derivatives in the presence of the antibiotic cut-off concentration was determined according to ISO 20776-1: 2020. The antibiotic cut-off concentration was chosen according to the European Committee on Antimicrobial Susceptibility Testing (EUCAST, Clinical breakpoints—bacteria (ver. 11.0), 1 January 2021). The 40 µM concentration of the derivatives was chosen as the highest concentration for the tests. Cell viability was determined by measuring absorbance (A590 nm) after 24 h incubation at 37 °C, 150 rpm.

[3] = tested on: Vibrio campbellii BAA 1118 (AI-1); assay: Viability of the quorum-sensing reporter culture (resazurin assay), AI-1 strain; type: cell-based; conditions: BAA1118, V. campbellii BAA 1118, resazurin assay, read-out: IC50 (concentration that halved the viability)
From the text: (§5) Commercially available strains of Vibrio campbellii were used to evaluate the ability of flavonoids and their derivatives to inhibit bacterial quorum sensing. V. campbellii uses two types of autoinducing molecules for its communication—N-acyl-homoserine lactones (Autoinducer I, AI-1, strain BAA 1118) and furanosyl borate diester (Autoinducer II, AI-2, strain BAA 1119). AI-1-based communication is mainly used by Gram-negative bacteria, while AI-2-based communication is found in both Gram-negative and Gram-positive bacteria. The mutant strains of V. campbellii BA1118 and BA1119 respond only to AI-1 or AI-2, respectively, and the response to the respective AI concentration is measured as luminescence. The higher the AI concentration, the higher the luminescence signal. The ability to inhibit the communication was expressed as the selectivity index (SI), calculated as the ratio between the concentration that halved the viability (IC50) and the concentration that halved the communication (EC50) of the respective V. campbellii strains. […] The antimicrobial activity of quorum-sensing inhibitors is undesirable because it creates a selection pressure and can lead to the development of resistance.
(§6) The inhibition of bacterial extracellular communication was measured using Vibrio campbellii strains BAA-1118 and BAA-1119. The experiment was performed according to the methods of Szemerédi et al.. Briefly, 5 × 10^5 CFU/mL (colony-forming units per milliliter) were seeded in an Autoinducer Bioassay medium (NaCl 17.5 g/L, MgSO4 12.3 g/L, Casamino acids 2 g/L, 10 mL of 1 M potassium phosphate pH 7.0, 10 mL of 0.1 M L-arginine, and 10 mL of glycerol in 970 mL of deionized water) in a 96-well plate. Immediately, the tested compounds were added at the final concentration of 0.2–200 µM and luminescence was recorded for 16 h by a SpectraMax i3x microplate reader set at 30 °C, an integration time of 10,000 ms, and shaking for 60 s before measurement. […] The selectivity index was calculated as the […]. The EC50 and IC50 were calculated using GraphPad Prism software version 5.00 for Windows with a nonlinear regression curve fit.

DPPH radical scavenging = conditions: 1,1-diphenyl-2-picrylhydrazyl radical scavenging
Protocol: as §1, §2

[4] = Folin-Ciocalteu reagent reduction; conditions: gallic acid equivalents
Protocol: as §1, §2

[5] = tested on: Vibrio campbellii BAA 1119 (AI-2); assay: microbe, parasite or virus in culture; type: cell-based; conditions: for EC50: Vibrio campbellii, BAA1119, 16 h, read-out: EC50 (concentration that halved the communication); for SI (selectivity index): ratio IC50 (viability) / EC50 (communication), BAA 1119
From the text: as §5, §6

[6] = tested on: Vibrio campbellii BAA 1118 (AI-1); assay: microbe, parasite or virus in culture; type: cell-based; conditions: for EC50: Vibrio campbellii, BAA1118, 16 h, read-out: EC50 (concentration that halved the communication); for SI (selectivity index): ratio IC50 (viability) / EC50 (communication), BAA 1118
From the text: as §5, §6

[7] = tested on: lipopolysaccharide-stimulated macrophages (RAW 264.7); assay: Inhibition of nitric oxide production (Griess reagent); type: cell-based, murine; conditions: Mus musculus, RAW264.7; LPS 100 ng/mL, 24 h; highest tested concentration 100 µM; read-out: NO Production IC50
Protocol: The anti-inflammatory activity of the tested flavonolignans was determined as the ability to reduce nitric oxide production by murine macrophages (RAW 264.7) stimulated by bacterial lipopolysaccharides, as previously described. […] For the experiment, 1 × 10^6 cells/mL was seeded into the 96-well plate (100 µL/well). […] After 24 h, the medium was mixed with Griess reagent (0.04 g/mL), prepared freshly in deionized water at the ratio of 1:1. The absorbance was measured after 15 min at 540 nm by the SpectraMax i3x microplate reader. Cell viability was determined by resazurin assay.

[8] = tested on: multidrug-resistant S. aureus; assay: Sensitization of antibiotic-resistant bacteria (compound plus breakpoint antibiotic concentration); type: cell-based, Staphylococcus aureus; conditions: chloramphenicol 8 mg/L, flavonoid 40 µM, 24 h
Protocol: as §3, §4

[9] = tested on: human dermal fibroblasts (HDF); assay: Cytotoxicity (resazurin assay, 72 h); type: cell-based; conditions: Fibroblast
Protocol: (§7) The cytotoxicity of flavonoids and their halogenated derivatives was determined as their ability to decrease the viability of human dermal fibroblasts (HDF) and doxorubicin-resistant human ovarian carcinomas (HOC/DOX). Both cell lines were cultivated in Dulbecco’s Modified Eagle’s Medium supplemented with fetal bovine serum (FBS, 10% v/v) and 1 × antibiotic antimycotic solution and incubated at 37 °C in the atmosphere of 5% CO2. The experiment was performed according to a previously published method. Briefly, 1 × 10^5 cells/mL were seeded into a 96-well plate (100 µL/well). After 24 h, flavonoids and their derivatives were administered at the concentration range of 31.25–500 µM. After 72 h, the viability was determined by resazurin assay (0.03 mg/mL of resazurin in PBS), where the fluorescence was measured after 2 h of incubation by the SpectraMax i3x microplate reader at a wavelength of 560/590 nm (excitation/emission). The concentration inhibiting half of the population (IC50) was determined using nonlinear regression in GraphPad Prism software. The selectivity index was calculated as the ratio between the IC50 for HDF (control, non-cancerous cells) and the IC50 for HOC/DOX (cancer cells).

[10] = tested on: doxorubicin-resistant human ovarian carcinoma (HOC/DOX); assay: Cytotoxicity (resazurin assay, 72 h); type: cell-based; conditions: for IC50: Homo sapiens, 72 h, resazurin assay; for SI (selectivity index): ratio IC50 for HDF / IC50 for HOC/DOX
Protocol: as §7

[11] = ABTS cation radical scavenging; conditions: vitamin C equivalent antioxidant capacity
Protocol: as §1, §2

[12] = tested on: Vibrio campbellii BAA 1119 (AI-2); assay: Viability of the quorum-sensing reporter culture (resazurin assay), AI-2 strain; type: cell-based; conditions: BAA1119, V. campbellii BAA 1119, resazurin assay, read-out: IC50 (concentration that halved the viability)
From the text: as §5, §6

Structure (SMILES)	FRAP [Fe2+eq] [1] [Fe2+eq]	Effect on viability in combination with colistin [2]	Effect on viability in combination with imipenem [2]	IC50 [3] [µM]	IC50 (DPPH radical scavenging) [µM]	FCR [GAE] [4] [GAE]	EC50 [5] [µM]	SI (selectivity index) [5]	EC50 [6] [µM]	SI (selectivity index) [6]	IC50 [7] [µM]	Effect on viability in combination with chloramphenicol [8]	IC50 [9] [µM]	IC50 [10] [µM]	SI (selectivity index) [10]	ABTS [CEAC] [11] [CEAC]	IC50 [12] [µM]
COc1cc([C@@H]2Oc3cc([C@H]4Oc5c(Br)c(O)cc(O)c5C(=O)[C@@H]4O)ccc3O[C@H]2CO)ccc1O [compound 20, 8-bromosilybin B]	0.056 ± 0.002	-	-	127 ± 4	> 500	1.10 ± 0.02	4.7 ± 0.2	≥42.9 ± 2.1	44.2 ± 0.7	2.9 ± 0.1	38 ± 2.2	-	97.9 ± 4.4	227	0.43	0.47 ± 0.01	
COc1cc([C@@H]2Oc3cc([C@H]4Oc5c(I)c(O)cc(O)c5C(=O)[C@@H]4O)ccc3O[C@H]2CO)ccc1O [compound 24, 8-iodosilybin B]	0.079 ± 0.002				97.1	1.01 ± 0.02										0.47 ± 0.04	
COc1cc([C@H]2Oc3cc([C@H]4Oc5c(I)c(O)c(I)c(O)c5C(=O)[C@@H]4O)ccc3O[C@@H]2CO)ccc1O [compound 25, 6,8-diiodosilybin A]	0.053 ± 0.003				> 500	0.95 ± 0.01										0.41 ± 0.01	
COc1cc([C@@H]2Oc3cc([C@H]4Oc5c(I)c(O)c(I)c(O)c5C(=O)[C@@H]4O)ccc3O[C@H]2CO)ccc1O [compound 26, 6,8-diiodosilybin B]	0.048 ± 0.001				249	0.84 ± 0.04										0.48 ± 0.01	
COc1cc([C@@H]2Oc3cc([C@H]4Oc5cc(O)c(Cl)c(O)c5C(=O)[C@@H]4O)ccc3O[C@H]2CO)ccc1O [compound 28, 6-Chlorosilybin B]	0.050 ± 0.002	-	-	130 ± 5.9	> 500	1.25 ± 0.01	3.2 ± 0.2	≥62.6 ± 3.6	114 ± 5	1.1 ± 0.1	52.4 ± 4.5	-	147	272	0.54	0.71 ± 0.02	> 200
O=C(O)c1cc(O)c(O)c(O)c1 [gallic acid, reference compound]						1.00											
O=C1O[C@H]([C@@H](O)CO)C(O)=C1O [vitamin C, reference compound]																1.01	
